Series [1] in a line: Walker carcinosarcoma 256 tumour growth inhibition in rats. The format is in vivo, Sprague-Dawley rats. Details: ED50: unit: mg/kg. The following applies: rat, in vivo, po, daily p.o. for 5 days; for LD50: dose causing 50 percent lethality; for selectivity ratio: read-out: T.I. (LD50/ED50). An excerpt:
(§1) LD50 is the dose that causes a 50 percent lethality of the animals, and ED50 is the dose that causes a 50 percent reduction of tumour size.
(§2) The experimental design and the interpretation of the results are in accordance with the standards set by the CCNSC (Cancer Chemotherpy Reports, January 1959 and December 1962).
(§3) Walker carcinosarcoma 256.
(§4) Experimental animals: Sprague-Dawley rats.
(§5) Tumour implant: Tumour pieces with 2-4 mm diameter, sub-
(§6) Therapy: Daily p.o. administration for 5 days starting on
(§7) the day following implantation.
(§8) Termination: The animals are killed on the 9th day.
(§9) Evaluation: Weights of tumours of test animals are compared
(§10) with those of control animals.

Series [2] concerns Walker carcinosarcoma 256. Described as above. The conditions noted are these: daily p.o. for 5 days; for ED50: dose causing 50 percent reduction of tumour size, killed 9th day; for antitumour activity: result in words. Type of series: in vivo, Sprague-Dawley rats. On the set-up: ED50: unit: mg/kg.
Text: as §1, §2, §3, §4, §5, §6, §7, §8, §9, §10

The target in series [3] is T1, rabbit uterus cytosol progesterone receptor (Oryctolagus cuniculus, UniProt P06186).
T1 construct: One ml portions of the supernatant (rabbit uterus cytosol) were pipetted into small centrifuge tubes of glass; from tissue; host or cells: uterus cytosol (105,000×g supernatant) of female rabbits pretreated with polyestradiol phosphate
T1 sequence (P06186 1-930): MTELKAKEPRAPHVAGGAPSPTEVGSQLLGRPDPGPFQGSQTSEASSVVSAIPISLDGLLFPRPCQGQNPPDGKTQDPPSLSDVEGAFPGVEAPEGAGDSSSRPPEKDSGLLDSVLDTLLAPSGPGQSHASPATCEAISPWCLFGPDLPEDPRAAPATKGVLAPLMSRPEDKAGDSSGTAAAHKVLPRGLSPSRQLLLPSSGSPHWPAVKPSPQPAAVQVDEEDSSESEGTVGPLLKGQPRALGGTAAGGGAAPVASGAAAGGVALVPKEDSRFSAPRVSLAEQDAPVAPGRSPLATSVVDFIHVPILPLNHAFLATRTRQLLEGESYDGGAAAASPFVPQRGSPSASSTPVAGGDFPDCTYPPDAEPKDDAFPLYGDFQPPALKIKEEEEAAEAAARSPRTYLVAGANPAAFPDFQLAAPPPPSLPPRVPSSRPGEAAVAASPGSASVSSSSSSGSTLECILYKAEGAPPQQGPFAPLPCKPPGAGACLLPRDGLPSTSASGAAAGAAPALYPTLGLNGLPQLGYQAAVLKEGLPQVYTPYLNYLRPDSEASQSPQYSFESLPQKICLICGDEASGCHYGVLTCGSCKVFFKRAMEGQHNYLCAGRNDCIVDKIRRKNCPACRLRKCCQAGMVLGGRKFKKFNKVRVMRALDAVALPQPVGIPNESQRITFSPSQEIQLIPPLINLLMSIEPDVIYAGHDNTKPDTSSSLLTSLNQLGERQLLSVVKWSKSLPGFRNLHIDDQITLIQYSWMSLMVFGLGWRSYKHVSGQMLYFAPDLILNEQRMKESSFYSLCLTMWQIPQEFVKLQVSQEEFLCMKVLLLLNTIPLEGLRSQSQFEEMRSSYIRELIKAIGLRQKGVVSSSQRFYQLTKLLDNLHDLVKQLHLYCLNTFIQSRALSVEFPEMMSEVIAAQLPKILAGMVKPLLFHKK
Nature of the series: Relative affinity to rabbit uterus cytosol progesterone receptor (3H-progesterone competition). The format is binding. The following applies: compared to progesterone; 50% competition with 3H-progesterone; 16-18 hours at 4° C. The procedure: This example illustrates the compound's relative affinity to rabbit uterus cytosol progesterone receptor compared with progesterone. The method used for this purpose is a modification of methods already described by Kontula, K. et al. (Acta Endocrinol. 78 (1975) 574) and Terenius, L. (Steroids 23 (1974) 909) among others.
Female rabbits (3-4 pounds) from Knut Larsen, Uddevalla, Sweden, were injected i.m. with 1 mg Estradurin (polyestradiol phosphate, 1 mg/ml saline, AB Leo, Sweden). After one week, the animals were killed and the uteri were immediately removed, chilled and cut free from connective tissues. All the following operations were performed at 0°-4° C. The uteri were cut into small pieces and washed several times with 3 vol. of buffer at pH 7.4 containing 50 MM TRIS-HCl, 1.5 mM EDTA, 3 mM NaN3, 2 mM dithiothreitol, and 25% glycerol (by vol.). The tissue was homogenized in the same buffer (3 vol.) with four 15-s bursts at rheostat setting 36-37 of an Ultra Turrax (Janke and Kunkel KG, Staufen, The Federal Republic of Germany). The homogenate was centifuged in a Sorvall GLC-2 centrifuge for 15 min at 600×g. The supernatanate was recentrifuged at 105,000×g for 60 min in a Beckman ultracentrifuge model LB-65-B with rotor SW 56.
One ml portions of the supernatant (rabbit uterus cytosol) were pipetted into small centrifuge tubes of glass and were kept at -70° C. until used. The protein content was determined by the method of Lowry (J. Biol. Chem. 193 (1951) 265).
10.0 mg of each compound was dissolved in 10.0 ml 99.5% ethanol. 100 μl of this standard solution was diluted to 5.0 ml ethanol/glycerol 1:1 (v/v). The ethanol was evaporated by blowing air at 40° C. on the solution. The volume was then adjusted to 5.0 ml by adding buffer without glycerol.
The compounds were diluted with glycerol/buffer 1:1 to final concentrations between 10^-8 -10^-5 M in total 300 μl incubation media. 100 μl of each compound and of each dilution were incubated in small centrifuge tubes (2 ml) together with 100 μl (10 pg) ^3 H-progesterone (1,2,6,7-3H-progesterone, 47.8 Ci/mMol, The Radiochemical Centre, Amersham, England) and 100 μl cytosol adjusted with buffer to a final concentration of about […]. The incubations were carried out for 16-18 hours at 4° C.
The separation of bound from free radioactivity was carried out at 0° C. using the dextran coated charcoal technique (DCC). To each incubation tube was added 0.5 ml DCC-suspension (0.05% dextran-70, Pharmacia, Uppsala, Sweden and 0.5% Norit A, Sigma, Saint Louis, Missouri, U.S.A.) The tubes were agitated 2-3 times during 10 minutes whereupon they were centrifuged at 100×g for five minutes. The supernatantes were decanted directly into Scintillation vials (polyethene, Packard) containing 10 ml InstaGel (Packard). The radioactivity was counted in a Philip's liquid scintillation spectrometer Model PW 4510/00 with external standard and automatic quenching correction.
To incubation tubes were added 100 μl cytosol, 100 μl ^3 H-progesterone (10 pg) and 100 μl of different dilutions of non-radioactive progesterone in glycerol/buffer 1:1 ranging from 0-10^4 pg/100 μl. The tubes were incubated parallel with the compounds described above. The radioactivity was calculated by substracting the counted radioactivity in the incubation tubes with the radioactivity counted in incubations tubes in which the cytosol was replaced with buffer (100 μl).
The concentration of non-radioactive progesterone [P]i which competes for 50% of bound radioactive progesterone was calculated from the standard curve constructed [B] i/[B] o=0.5 where [B]i is the bound radioactivity at different concentrations of non-radioactive progesterone and [B]o is the bound radioactivity at progesterone concentration zero.
In the same manner, curves were constructed for each compound X and the concentration for each compound which competes for 50% with bound ^3 H-progesterone ([X]50) was calculated. […]

Series [4] concerns Ehrlich ascites tumour, ELD hyperdiploid. Nature of the series: Ehrlich ascites tumour, ELD hyperdiploid (46 chromosomes), growth inhibition in mice. Type of series: in vivo, SPF NMRI mice. The following applies: one i.p. injection; for Tumour weight Treated/Control: 8th day; for antitumour activity: result in words.
Text: as §2
Ehrlich ascites tumour, ELD hyperdiploid
Experimental animals: SPF NMRI mice.
Tumour implant: 2 × 10^6 tumour cells i.p.
(§11) Therapy: One injection i.p. on the day following implanta-
(§12) Termination: The animals are killed on the 8th day.
Evaluation: Weight of tumours of test animals compared with
those of control animals.

In series [5] the test system is Hepatome AH 130. As to the kind of experiment: Hepatome AH 130 tumour growth inhibition in rats. The format is in vivo, Sprague-Dawley rats. The conditions noted are these: one i.p. injection, dose causing 50 percent reduction of tumour size, killed 8th day. On the set-up: ED50: unit not given here.
Text: as §1, §2, §4
(§13) Tumour implant: 5 × 10^6 tumour cells i.p.
as §11, §12, §9, §10

Series [6] can be described thus: Hepatome AH 130 tumour growth inhibition in rats. The format is in vivo, Sprague-Dawley rats. Details: ED50: unit not given here. The following applies: rat, in vivo, ip, one i.p. injection; for LD50: dose causing 50 percent lethality, column head not given; for selectivity ratio: read-out: T.I. (LD50/ED50).
Text: as §1, §2, §4, §13, §11, §12, §9, §10

Molecules are shown by their SMILES.

Take `CC(=O)[C@@]1(OC(=O)COC(=O)CCCc2ccc(N(CCCl)CCCl)cc2)CC[C@H]2[C@@H]3CCC4=CC(=O)CC[C@]4(C)[C@H]3CC[C@@]21C` [Compound 3:2, 17α-/4-(4-(N,N-bis(2-chloroethyl)amino)phenyl)butanoyloxyacetoxy/pregn-4-ene-3,20-dione]: in series [1], the LD50 is more than 250 mg/kg and the selectivity ratio is more than 83. This compound displayed an ED50 in series [2] of 3. In addition, in series [3], the “relative binding affinity (RBA)” value turned out to be 0.7%. Besides, in series [4] (50 mg/kg), the Mortality is 0/12 and the “Tumour weight Treated/Control” value is reported as 1%. In series [5], this compound yielded an ED50 of 100. For the same compound, in series [6], the LD50 was more than 1000 mg/kg and the selectivity ratio was more than 10.

As to `CC(=O)[C@@]1(OC(=O)COC(=O)Cc2ccc(N(CCCl)CCCl)cc2)CC[C@H]2[C@@H]3CCC4=CC(=O)CC[C@]4(C)[C@H]3CC[C@@]21C` [3:1, 17α-/4-(N,N-bis(2-chloroethyl)amino)phenylacetoxyacetoxy/pregn-4-ene-3,20-dione], the LD50 in series [1] and in series [6] was more than 250 mg/kg in each case. Further, the selectivity ratio in series [1] is more than 31; in series [6], more than 83. Also, the ED50 is 8 in series [2] and 3 in series [5]. Also, in series [3], the “relative binding affinity (RBA)” value is 6.6%. Besides, in series [4] (50 mg/kg), the Mortality is 1/12. Besides, the “Tumour weight Treated/Control” value in series [4] (50 mg/kg) is reported as 3%.

`CC(=O)[C@@]1(OC(=O)COC(=O)Nc2ccc(N(CCCl)CCCl)cc2)CC[C@H]2[C@@H]3CCC4=CC(=O)CC[C@]4(C)[C@H]3CC[C@@]21C` [Compound 5:1, 17α-/4-(N,N-bis(2-chloroethyl)amino)phenylcarbamoyloxyacetoxy/pregn-4-ene-3,20-dione]: the antitumour activity result in series [2] is “exhibit antitumour activity”. Besides, in series [3], the “relative binding affinity (RBA)” value worked out at 15.8%. For the same compound, in series [4] (1000 mg/kg), the Mortality was 0/12 and the “Tumour weight Treated/Control” value amounted to 1%. In addition, in series [4], the antitumour activity entry is “exhibit antitumour activity”. The ED50 in series [5] worked out at 30. Also, in series [6], the LD50 was more than 250 mg/kg and the selectivity ratio was more than 8.

With `CC(=O)[C@@]1(OC(=O)CCCOC(=O)CCCc2ccc(N(CCCl)CCCl)cc2)CC[C@H]2[C@@H]3CCC4=CC(=O)CC[C@]4(C)[C@H]3CC[C@@]21C` [Compound 3:3], the LD50 came to 40 mg/kg in series [1] and 180 mg/kg in series [6]. Further, the selectivity ratio in series [1] stood at 20; in series [6], 30. The ED50 turned out to be 2 in series [2] and 6 in series [5]. Moreover, the “relative binding affinity (RBA)” value in series [3] is on record as 0.6%. For the same compound, the antitumour activity result in series [4] is listed as “exhibit antitumour activity”.

As to `CC(=O)[C@@]1(OC(=O)CCCOC(=O)c2ccc(C)c(N(CCCl)CCCl)c2)CC[C@H]2[C@@H]3CCC4=CC(=O)CC[C@]4(C)[C@H]3CC[C@@]21C` [7:4, 17α-/4-(3-(N,N-bis(2-chloroethyl)amino)-4-methylbenzoyloxy)butanoyloxy/pregn-4-ene-3,20-dione], in series [2], the antitumour activity result is “exhibit antitumour activity”. Besides, the “relative binding affinity (RBA)” value in series [3] was 0.9%. Moreover, in series [4], the antitumour activity result is “exhibit antitumour activity”. Moreover, the ED50 in series [5] worked out at 16. For the same compound, in series [6], the LD50 is more than 250 mg/kg and the selectivity ratio was more than 15.

The values are drawn from patent US4177269A, “Novel 17-esters of 17α-hydroxy gestogens, compositions containing such compounds, processes for their preparation and methods of treatment therewith” (Aktiebolaget Leo, priority 1976, dated 1979).
